ChEMBL document CHEMBL5058642, “Data for DCP probe TP-051” (2022)

Experiments:
Rattus norvegicus [1] = organism: Rattus norvegicus; test: Testosterone Eurofins-Panlabs radioligand binding assay; design: ligand concentration 1.5 nM; settings: Compound concentration 10.0 uM
[2] = target: B1 bradykinin receptor (Homo sapiens) (UniProt P46663); test: Inhibition of Bradykinin B1 at 10 µM in the Eurofins-Panlabs radioligand binding assay (Eurofins_assay_212510); settings: Compound concentration 10.0 uM
[3] = target: B2 bradykinin receptor (Homo sapiens) (UniProt P30411); test: Bradykinin B2 Eurofins-Panlabs radioligand binding assay; settings: Compound concentration 10.0 uM
[4] = target: Cholecystokinin receptor type A (Homo sapiens) (UniProt P32238); test: Inhibition of Cholecystokinin CCK1 (CCKA) at 10 µM in the Eurofins-Panlabs radioligand binding assay (Eurofins_assay_218020); settings: Compound concentration 10.0 uM
Rattus norvegicus [5] = organism: Rattus norvegicus; test: Serotonin (5-Hydroxytryptamine) 5-HT1, Non-Selective Eurofins-Panlabs radioligand binding assay; format: protein assay; settings: Compound concentration 10.0 uM
[6] = target: Vasopressin V1a receptor (Homo sapiens) (UniProt P37288); test: Vasopressin V1A Eurofins-Panlabs radioligand binding assay; design: ligand concentration 0.01 nM; settings: Compound concentration 10.0 uM
[7] = target: Gamma-aminobutyric acid type B receptor subunit 1 (Homo sapiens) (UniProt Q9UBS5); test: GABAB1A Eurofins-Panlabs radioligand binding assay; settings: Compound concentration 10.0 uM
[8] = target: Glucocorticoid receptor (Homo sapiens) (UniProt P04150); test: Glucocorticoid Eurofins-Panlabs radioligand binding assay; settings: Compound concentration 10.0 uM
[9] = target: T1, Muscarinic acetylcholine receptor M1 (Homo sapiens) (UniProt P11229); test: Muscarinic M1 Eurofins-Panlabs radioligand binding assay; settings: Compound concentration 10.0 uM
T1 sequence (whole entry): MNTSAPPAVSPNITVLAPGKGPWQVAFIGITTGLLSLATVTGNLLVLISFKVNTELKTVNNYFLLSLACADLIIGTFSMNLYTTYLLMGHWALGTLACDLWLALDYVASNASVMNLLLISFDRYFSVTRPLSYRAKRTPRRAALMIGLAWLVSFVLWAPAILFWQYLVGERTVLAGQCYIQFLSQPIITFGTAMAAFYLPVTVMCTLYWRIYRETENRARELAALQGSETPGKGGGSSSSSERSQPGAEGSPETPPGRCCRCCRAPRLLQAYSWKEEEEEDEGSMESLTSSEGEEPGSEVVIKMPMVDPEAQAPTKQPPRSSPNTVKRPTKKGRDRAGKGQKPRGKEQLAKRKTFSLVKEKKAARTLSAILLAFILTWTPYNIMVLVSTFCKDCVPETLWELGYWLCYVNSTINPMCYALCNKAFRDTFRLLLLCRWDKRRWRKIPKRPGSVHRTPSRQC

[10] = target: Muscarinic acetylcholine receptor M3 (Homo sapiens) (UniProt P20309); test: Muscarinic M3 Eurofins-Panlabs radioligand binding assay; settings: Compound concentration 10.0 uM
[11] = target: T2, 5-hydroxytryptamine receptor 3A (Homo sapiens) (UniProt P46098); settings: Compound concentration 10.0 uM
T2 sequence (whole entry): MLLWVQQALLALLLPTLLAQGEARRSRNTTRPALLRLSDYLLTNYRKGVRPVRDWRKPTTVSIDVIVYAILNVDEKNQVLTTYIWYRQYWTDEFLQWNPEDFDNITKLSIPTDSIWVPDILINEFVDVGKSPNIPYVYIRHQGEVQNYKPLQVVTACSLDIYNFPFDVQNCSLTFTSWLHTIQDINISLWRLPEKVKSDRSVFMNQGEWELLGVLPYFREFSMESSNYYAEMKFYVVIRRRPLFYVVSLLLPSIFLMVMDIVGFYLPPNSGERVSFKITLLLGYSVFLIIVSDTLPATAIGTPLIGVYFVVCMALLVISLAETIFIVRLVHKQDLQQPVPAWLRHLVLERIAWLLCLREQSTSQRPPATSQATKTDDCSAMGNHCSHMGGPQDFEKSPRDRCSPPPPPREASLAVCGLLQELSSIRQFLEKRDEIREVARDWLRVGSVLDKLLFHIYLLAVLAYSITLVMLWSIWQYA

[12] = target: D(1A) dopamine receptor (Homo sapiens) (UniProt P21728); settings: Compound concentration 10.0 uM
[13] = target: Mu-type opioid receptor (Homo sapiens) (UniProt P35372); settings: Compound concentration 10.0 uM
[14] = target: Alpha-2A adrenergic receptor (Homo sapiens) (UniProt P08913); settings: Compound concentration 10.0 uM
[15] = target: Alpha-2B adrenergic receptor (Homo sapiens) (UniProt P18089); settings: Compound concentration 10.0 uM
[16] = target: Alpha-2C adrenergic receptor (Homo sapiens) (UniProt P18825); settings: Compound concentration 10.0 uM
[17] = target: Beta-1 adrenergic receptor (Homo sapiens) (UniProt P08588); settings: Compound concentration 10.0 uM
[18] = target: Beta-3 adrenergic receptor (Homo sapiens) (UniProt P13945); settings: Compound concentration 10.0 uM
[19] = target: GABA-A receptor; anion channel (Rattus norvegicus) (UniProt O09028+P15431+P18506+P18508+P19969+P20236+P23574+P23576+P28471+P28473+P30191+P62813+P63079+P63138+Q91ZM7+Q9ES14); settings: Compound concentration 10.0 uM
[20] = target: Sigma intracellular receptor 2 (Homo sapiens) (UniProt Q5BJF2); settings: Compound concentration 10.0 uM
[21] = target: Sigma non-opioid intracellular receptor 1 (Homo sapiens) (UniProt Q99720); settings: Compound concentration 10.0 uM
[22] = target: Adenosine receptor A3 (Homo sapiens) (UniProt P0DMS8); settings: Compound concentration 10.0 uM
D(3) dopamine receptor = D(3) dopamine receptor (Homo sapiens, UniProt P35462); settings: Compound concentration 10.0 uM
[23] = target: Estrogen receptor (Homo sapiens) (UniProt P03372); settings: Compound concentration 10.0 uM
[24] = target: Histamine H2 receptor (Homo sapiens) (UniProt P25021); settings: Compound concentration 10.0 uM
[25] = target: Sodium-dependent noradrenaline transporter (Homo sapiens) (UniProt P23975); settings: Compound concentration 10.0 uM
[26] = target: Beta-3 adrenergic receptor (Homo sapiens) (UniProt P13945); settings: Compound concentration 10.0 uM; remark: listed apart in the source
[27] = target: Glutamate receptor 2 (Homo sapiens) (UniProt P42262); settings: Rattus norvegicus; Compound concentration 10.0 uM
[28] = target: Insulin receptor (Homo sapiens) (UniProt P06213); settings: Rattus norvegicus; Compound concentration 10.0 uM

Measured: inhibition

Sequence of Beta-3 adrenergic receptor (Homo sapiens) (P13945 whole entry, looked up): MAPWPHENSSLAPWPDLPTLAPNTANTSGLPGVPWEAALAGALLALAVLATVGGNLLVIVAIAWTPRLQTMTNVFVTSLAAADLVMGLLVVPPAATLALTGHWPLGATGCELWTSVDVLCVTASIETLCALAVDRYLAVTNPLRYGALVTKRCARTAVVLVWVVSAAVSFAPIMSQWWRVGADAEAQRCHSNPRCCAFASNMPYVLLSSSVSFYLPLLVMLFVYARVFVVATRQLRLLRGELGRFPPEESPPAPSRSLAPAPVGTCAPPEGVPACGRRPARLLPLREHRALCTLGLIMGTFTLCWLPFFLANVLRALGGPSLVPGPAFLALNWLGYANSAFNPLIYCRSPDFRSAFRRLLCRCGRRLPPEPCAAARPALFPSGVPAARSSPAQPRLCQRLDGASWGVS
Sequence of Sigma non-opioid intracellular receptor 1 (Homo sapiens) (Q99720 whole entry): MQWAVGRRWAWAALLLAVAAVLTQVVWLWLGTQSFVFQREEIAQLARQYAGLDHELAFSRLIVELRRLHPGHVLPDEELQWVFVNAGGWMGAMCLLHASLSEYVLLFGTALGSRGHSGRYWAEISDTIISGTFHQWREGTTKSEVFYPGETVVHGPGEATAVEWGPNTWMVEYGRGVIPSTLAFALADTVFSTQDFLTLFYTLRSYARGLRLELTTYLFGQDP
Sequence of Beta-1 adrenergic receptor (Homo sapiens) (P08588 whole entry, looked up): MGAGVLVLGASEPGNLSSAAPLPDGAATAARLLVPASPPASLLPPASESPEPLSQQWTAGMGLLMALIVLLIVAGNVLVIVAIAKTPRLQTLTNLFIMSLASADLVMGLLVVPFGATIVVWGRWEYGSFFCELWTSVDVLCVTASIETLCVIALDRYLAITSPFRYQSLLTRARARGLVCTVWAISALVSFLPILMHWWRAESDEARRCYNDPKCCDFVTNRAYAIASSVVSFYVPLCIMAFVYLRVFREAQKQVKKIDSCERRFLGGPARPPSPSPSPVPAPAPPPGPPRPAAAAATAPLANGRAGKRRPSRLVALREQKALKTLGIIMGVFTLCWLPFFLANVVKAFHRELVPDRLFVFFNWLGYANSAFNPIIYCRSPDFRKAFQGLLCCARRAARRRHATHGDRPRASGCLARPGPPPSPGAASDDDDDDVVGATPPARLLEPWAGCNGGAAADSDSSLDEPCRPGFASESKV
Sequence of B2 bradykinin receptor (Homo sapiens) (P30411 whole entry): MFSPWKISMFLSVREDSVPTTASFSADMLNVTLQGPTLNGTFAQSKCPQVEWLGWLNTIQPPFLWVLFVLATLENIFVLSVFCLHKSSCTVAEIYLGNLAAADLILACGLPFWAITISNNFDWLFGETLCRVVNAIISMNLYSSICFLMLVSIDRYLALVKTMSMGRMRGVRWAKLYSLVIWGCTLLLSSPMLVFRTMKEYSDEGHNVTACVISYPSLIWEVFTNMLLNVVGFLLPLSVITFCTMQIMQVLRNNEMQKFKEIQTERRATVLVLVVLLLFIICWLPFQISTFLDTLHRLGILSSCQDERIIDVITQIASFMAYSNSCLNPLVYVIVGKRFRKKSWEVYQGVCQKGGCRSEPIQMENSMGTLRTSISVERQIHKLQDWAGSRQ
Sequence of Insulin receptor (Homo sapiens) (P06213 28-758 limits assumed): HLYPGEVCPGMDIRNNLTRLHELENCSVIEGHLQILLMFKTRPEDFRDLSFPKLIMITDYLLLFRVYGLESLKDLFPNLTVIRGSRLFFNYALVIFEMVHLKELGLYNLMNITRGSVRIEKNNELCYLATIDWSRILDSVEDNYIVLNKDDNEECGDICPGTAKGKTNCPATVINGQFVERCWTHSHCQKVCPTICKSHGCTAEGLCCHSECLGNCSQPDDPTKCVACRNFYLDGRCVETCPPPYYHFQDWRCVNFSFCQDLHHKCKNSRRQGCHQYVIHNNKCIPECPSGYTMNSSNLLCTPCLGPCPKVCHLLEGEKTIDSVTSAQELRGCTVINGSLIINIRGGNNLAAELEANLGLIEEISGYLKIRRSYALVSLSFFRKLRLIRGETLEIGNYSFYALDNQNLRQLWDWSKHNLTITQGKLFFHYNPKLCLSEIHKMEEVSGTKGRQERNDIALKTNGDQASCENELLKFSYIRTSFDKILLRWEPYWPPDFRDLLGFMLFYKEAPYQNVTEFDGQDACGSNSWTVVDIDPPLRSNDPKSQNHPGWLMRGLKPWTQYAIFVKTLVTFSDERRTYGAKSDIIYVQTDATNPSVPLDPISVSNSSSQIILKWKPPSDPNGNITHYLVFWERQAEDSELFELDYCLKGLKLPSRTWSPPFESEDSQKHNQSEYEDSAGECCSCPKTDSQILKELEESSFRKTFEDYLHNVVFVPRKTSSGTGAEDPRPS
Sequence of Insulin receptor (Homo sapiens) (P06213 763-1382 limits assumed): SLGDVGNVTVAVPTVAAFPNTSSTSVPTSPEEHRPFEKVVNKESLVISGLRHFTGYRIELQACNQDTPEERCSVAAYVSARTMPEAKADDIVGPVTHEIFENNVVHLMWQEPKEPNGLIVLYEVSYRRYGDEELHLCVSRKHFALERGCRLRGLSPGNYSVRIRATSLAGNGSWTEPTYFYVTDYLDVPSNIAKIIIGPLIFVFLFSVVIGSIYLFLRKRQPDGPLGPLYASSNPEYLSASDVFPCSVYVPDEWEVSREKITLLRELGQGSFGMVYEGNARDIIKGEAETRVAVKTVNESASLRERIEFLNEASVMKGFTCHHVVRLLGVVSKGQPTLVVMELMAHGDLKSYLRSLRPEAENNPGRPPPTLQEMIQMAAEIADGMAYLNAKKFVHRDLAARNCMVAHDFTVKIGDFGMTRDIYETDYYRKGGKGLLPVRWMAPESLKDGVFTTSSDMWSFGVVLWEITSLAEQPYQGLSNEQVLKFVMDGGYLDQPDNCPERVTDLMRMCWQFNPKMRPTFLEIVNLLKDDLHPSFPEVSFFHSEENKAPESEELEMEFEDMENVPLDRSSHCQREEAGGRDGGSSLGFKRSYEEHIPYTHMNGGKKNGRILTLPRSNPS
Sequence of Alpha-2C adrenergic receptor (Homo sapiens) (P18825 whole entry): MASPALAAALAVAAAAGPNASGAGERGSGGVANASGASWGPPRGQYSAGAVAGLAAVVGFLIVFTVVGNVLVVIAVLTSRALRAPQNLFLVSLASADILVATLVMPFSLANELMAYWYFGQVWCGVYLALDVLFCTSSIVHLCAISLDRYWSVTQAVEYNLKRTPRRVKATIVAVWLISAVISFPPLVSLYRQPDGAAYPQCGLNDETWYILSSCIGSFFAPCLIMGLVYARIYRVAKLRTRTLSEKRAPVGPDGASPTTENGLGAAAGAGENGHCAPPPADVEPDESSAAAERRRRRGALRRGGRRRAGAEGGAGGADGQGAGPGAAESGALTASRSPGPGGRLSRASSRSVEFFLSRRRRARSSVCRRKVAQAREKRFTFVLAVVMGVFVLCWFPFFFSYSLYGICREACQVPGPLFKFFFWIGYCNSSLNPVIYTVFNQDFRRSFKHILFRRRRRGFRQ
Sequence of Vasopressin V1a receptor (Homo sapiens) (P37288 whole entry, looked up): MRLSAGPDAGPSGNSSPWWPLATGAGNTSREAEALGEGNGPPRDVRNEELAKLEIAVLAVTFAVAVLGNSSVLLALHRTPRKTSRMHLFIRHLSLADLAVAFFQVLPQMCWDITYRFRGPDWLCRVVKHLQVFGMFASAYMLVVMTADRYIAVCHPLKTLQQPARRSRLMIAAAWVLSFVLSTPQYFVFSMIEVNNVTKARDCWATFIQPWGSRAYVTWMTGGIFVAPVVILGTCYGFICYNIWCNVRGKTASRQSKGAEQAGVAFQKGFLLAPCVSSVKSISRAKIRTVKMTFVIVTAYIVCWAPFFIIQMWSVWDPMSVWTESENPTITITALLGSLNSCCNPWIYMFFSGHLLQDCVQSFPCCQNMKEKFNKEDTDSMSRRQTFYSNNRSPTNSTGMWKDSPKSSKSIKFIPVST
Sequence of Sodium-dependent noradrenaline transporter (Homo sapiens) (P23975 whole entry): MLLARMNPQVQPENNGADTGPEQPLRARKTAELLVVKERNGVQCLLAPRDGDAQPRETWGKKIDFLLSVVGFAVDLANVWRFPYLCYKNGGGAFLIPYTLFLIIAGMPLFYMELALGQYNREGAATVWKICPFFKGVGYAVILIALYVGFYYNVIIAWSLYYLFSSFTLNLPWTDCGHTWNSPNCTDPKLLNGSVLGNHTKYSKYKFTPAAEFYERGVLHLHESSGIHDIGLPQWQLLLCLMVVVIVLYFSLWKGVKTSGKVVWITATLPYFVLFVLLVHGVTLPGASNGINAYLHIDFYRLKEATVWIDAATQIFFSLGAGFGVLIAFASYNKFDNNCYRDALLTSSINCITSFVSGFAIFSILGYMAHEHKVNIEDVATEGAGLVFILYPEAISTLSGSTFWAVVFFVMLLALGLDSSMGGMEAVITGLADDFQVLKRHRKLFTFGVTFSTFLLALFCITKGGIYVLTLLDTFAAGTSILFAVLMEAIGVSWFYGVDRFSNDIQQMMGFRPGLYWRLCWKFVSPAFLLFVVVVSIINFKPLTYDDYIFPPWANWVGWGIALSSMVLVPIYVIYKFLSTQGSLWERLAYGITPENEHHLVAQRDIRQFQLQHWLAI
Sequence of Muscarinic acetylcholine receptor M3 (Homo sapiens) (P20309 whole entry, looked up): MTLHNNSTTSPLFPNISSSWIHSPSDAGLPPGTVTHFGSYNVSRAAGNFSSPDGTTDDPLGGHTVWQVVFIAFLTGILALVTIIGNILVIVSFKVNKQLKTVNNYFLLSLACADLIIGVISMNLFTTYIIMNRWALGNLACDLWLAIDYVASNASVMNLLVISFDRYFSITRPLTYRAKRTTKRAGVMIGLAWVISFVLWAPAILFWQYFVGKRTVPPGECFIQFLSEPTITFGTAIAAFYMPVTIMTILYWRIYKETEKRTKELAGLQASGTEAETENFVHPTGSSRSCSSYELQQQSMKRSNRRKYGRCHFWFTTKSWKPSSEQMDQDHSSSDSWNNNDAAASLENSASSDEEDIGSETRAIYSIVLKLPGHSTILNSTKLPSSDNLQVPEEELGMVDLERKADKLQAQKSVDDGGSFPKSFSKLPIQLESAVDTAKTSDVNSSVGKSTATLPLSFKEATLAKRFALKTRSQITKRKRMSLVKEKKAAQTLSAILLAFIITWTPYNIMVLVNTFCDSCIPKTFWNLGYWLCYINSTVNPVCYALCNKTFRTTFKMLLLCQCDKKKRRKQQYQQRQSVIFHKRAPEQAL

Cc1cc(OC2CCS(=O)(=O)CC2)cc(C)c1-c1cccc(COc2ccc(C(=O)O)c(F)c2)c1
inactive: Rattus norvegicus [1] 26% | [2] 19% | [3] -4% | [4] -9% | Rattus norvegicus [5] -9% | [6] -4% | [7] 20% | [8] 14% | [9] -7% | [10] 1% | [11] -5.96% | [12] 20.9% | [13] -7.84% | [14] 13.1% | [15] -0.21% | [16] -4.04% | [17] -0.49% | [18] 6.71% | [19] 19.5% | [20] 1.49% | [21] 16.7% | [22] 0% | D(3) dopamine receptor 4% | [23] 7% | [24] 2% | [25] 5% | [26] -3% | [27] -3% | [28] 0%

Cc1cc(OC2CCS(=O)(=O)CC2)cc(C)c1-c1cccc(COc2ccc(CCC(=O)O)c(F)c2)c1
inactive: Rattus norvegicus [1] 17% | [2] 14% | [3] 7% | [4] 4% | Rattus norvegicus [5] 16% | [6] 0% | [7] 7% | [8] 0% | [9] -9% | [10] 4% | [11] 6.06% | [12] 13.7% | [13] 1.32% | [14] 13% | [15] 13.1% | [16] 5.47% | [17] 14.4% | [18] -5.43% | [19] 23.7% | [20] 19.6% | [21] 8.9% | [22] 5% | D(3) dopamine receptor -7% | [23] 3% | [24] 26% | [25] 22% | [26] 15% | [27] 4% | [28] 7%
